From the NIST ThermoML archive (doi:10.1021/je020163y) come the findings set out here.

Numbers after ± are expanded uncertainties.

The conditions of the series: Crystal; visual observation.

Regarding `O=c1c2ccccc2sc2cccc(O)c12` [1-hydroxythioxanthone], the Normal melting temperature worked out at 119 ± 1 °C.

Take `Cc1cc(O)c2c(=O)c3ccccc3sc2c1` [1-hydroxy3-methylthioxanthone]: the Normal melting temperature is 149 ± 1 °C.

`O=c1c2ccccc2sc2ccccc12` [thioxanthone]: the Normal melting temperature turned out to be 209 ± 2 °C.

Regarding `Cc1cc(O)c2c(=O)c3ccccc3sc2c1O` [1,4-dihydroxy-3-methylthioxanthone], the Normal melting temperature was found to be 240 ± 4 °C.
